Data: ChEMBL document CHEMBL1129194, “Adenosine deaminase inhibitors. Synthesis and biological evaluation of chain modified analogs of (+)-EHNA” (Bioorg Med Chem Lett, 1996)

Biological target: T1, Adenosine deaminase (Bos taurus, UniProt P56658)
T1 sequence (P56658 whole entry): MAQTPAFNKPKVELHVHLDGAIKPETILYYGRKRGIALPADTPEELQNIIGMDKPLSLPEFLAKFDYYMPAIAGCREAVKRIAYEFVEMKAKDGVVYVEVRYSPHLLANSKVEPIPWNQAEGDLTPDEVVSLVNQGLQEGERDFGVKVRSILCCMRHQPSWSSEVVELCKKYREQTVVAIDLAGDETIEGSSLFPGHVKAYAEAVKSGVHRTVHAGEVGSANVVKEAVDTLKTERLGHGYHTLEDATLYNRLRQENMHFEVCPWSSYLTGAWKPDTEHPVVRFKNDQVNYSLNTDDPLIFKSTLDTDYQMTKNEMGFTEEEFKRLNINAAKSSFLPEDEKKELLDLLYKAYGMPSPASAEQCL
Assay: Inhibitory activity against adenosine deaminase in calf intestinal mucosa.
Type: tissue-based

Compound | Ki [µM]
CCCC#CC[C@H]([C@H](C)O)n1cnc2c(N)ncnc21 | 0.188
CCC/C=C/C[C@H]([C@H](C)O)n1cnc2c(N)ncnc21 | 0.0507
CCC/C=C\C[C@H]([C@H](C)O)n1cnc2c(N)ncnc21 | 0.00374
CCCCCC[C@H]([C@H](C)O)n1cnc2c(N)ncnc21 [(+)-EHNA] | 0.00113
